According to publication PMC12118597 (Science Advances, 2025):
Where two headings read alike, the source gives them in different places.

Molecular target: SARS-CoV-2 NSP3 macrodomain (Mac1) (Severe acute respiratory syndrome coronavirus 2, UniProt P0DTD1)
Assay type: binding
Settings: for 1-BDC: PanDDA background density correction factor; for PanDDA run, overall: Hit / PanDDA run, overall: Modeled: P43 crystal form; for Total number of conformations: ligand conformations modeled in the crystal structure; for 2*(1-BDC) (%): occupancy estimate from PanDDA; for Refined ligand occupancy (%): refined crystallographic occupancy
[1] = TRUE = crystal structure with ligand obtained
[2] = site of ligand in X-ray crystal structure
[3] = ligand-bound crystal structure obtained (TRUE)
[4] = site occupied in X-ray crystal structure
[5] = crystal soak 10 mM, TFA/DMSO background map

Compound | Occupancy difference (refined_occupancy - 2*(1-BDC)) | 1-BDC | X-ray crystal structure [1] | PanDDA run, overall: Hit (crystal soak 10 mM) | PanDDA run, overall: Modeled (crystal soak 10 mM) | PanDDA run, DMSO background map: 1-BDC (crystal soak 10 mM) | PanDDA run, DMSO background map: Hit (crystal soak 10 mM) | Total number of conformations | 2*(1-BDC) (%) | Refined ligand occupancy (%) | Binding site [2] | X-ray crystal structure [3] | Binding site [4] | PanDDA run, overall: Modeling comment (crystal soak 10 mM) | PanDDA run, TFA/DMSO background map: 1-BDC [5] | PanDDA run, TFA/DMSO background map: Hit [5] | Phe132 loop open state
OCC(Nc1ncnc2[nH]ccc12)C1CCc2ccccc21 (stereo not drawn) [AVI-3693] | 16 | 0.22 | TRUE | TRUE | TRUE | 0.22 | TRUE | 2 | 44 | 60 | Adenosine | – | – | – | – | – | –
OCC(Cc1ccccn1)Nc1ncnc2[nH]ccc12 (stereo not drawn) [AVI-3696] | 14 | 0.13 | TRUE | TRUE | TRUE | 0.13 | TRUE | 2 | 26 | 40 | Adenosine | – | – | – | – | – | –
OCC(O)C1CCCN1c1ncnc2[nH]ccc12 (stereo not drawn) [AVI-3701] | 0 | 0.18 | – | TRUE | – | 0.18 | TRUE | 1 | 36 | 36 | – | TRUE | Adenosine | – | – | – | –
O=C(O)C(F)(F)F.OC[C@H]1CC2(CN1c1ncnc3[nH]ccc13)OCCO2 [AVI-3702] | 0 | 0.21 | – | TRUE | – | 0.21 | TRUE | 1 | 42 | 42 | – | TRUE | Adenosine | – | – | – | –
OCC(Cc1cncs1)Nc1ncnc2[nH]ccc12 (stereo not drawn) [AVI-3703] | 0 | 0.15 | TRUE | TRUE | – | 0.15 | TRUE | 1 | 30 | 30 | Adenosine | – | – | – | – | – | –
OCC(Cc1ccoc1)Nc1ncnc2[nH]ccc12 (stereo not drawn) [AVI-3705] | 0 | 0.21 | TRUE | TRUE | – | 0.21 | TRUE | 1 | 42 | 42 | Adenosine | – | – | – | – | – | –
O=C(O)C(F)(F)F.OCC(Cc1cccc(F)c1)Nc1ncnc2[nH]ccc12 (stereo not drawn) [AVI-3706] | – | – | – | – | – | – | – | – | – | – | – | – | – | TFA only | – | – | –
OCC1CC2(CCOCC2)CN1c1ncnc2[nH]ccc12 (stereo not drawn) [AVI-3707] | 0 | 0.21 | – | TRUE | – | 0.21 | TRUE | 1 | 42 | 42 | – | TRUE | Adenosine | Distal site, weak density, not modeled | – | – | –
OCC(COCc1ccccc1)Nc1ncnc2[nH]ccc12 (stereo not drawn) [AVI-3709] | 0 | 0.19 | TRUE | TRUE | – | 0.19 | TRUE | 2 | 38 | 38 | Adenosine | – | – | – | – | – | –
O=C(O)C(F)(F)F.OC[C@@H]1CC2(CC2)CN1c1ncnc2[nH]ccc12 [AVI-3710] | 0 | 0.26 | – | TRUE | – | 0.26 | TRUE | 2 | 52 | 52 | – | TRUE | Adenosine | Weak density for open state of Phe132 loop | – | – | –
OCC(Cc1cccs1)Nc1ncnc2[nH]ccc12 (stereo not drawn) [AVI-3711] | 0 | 0.21 | TRUE | TRUE | – | 0.21 | TRUE | 1 | 42 | 42 | Adenosine | – | – | – | – | – | –
O=C(O)C(F)(F)F.OCC1C2C=CC(C2)N1c1ncnc2[nH]ccc12 (stereo not drawn) [AVI-3712] | – | – | – | TRUE | – | 0.15 | TRUE | – | – | – | – | – | – | Weak density, not modeled | 0.05 | TRUE | –
CC(C)(C)C(O)CC(CO)Nc1ncnc2[nH]ccc12.O=C(O)C(F)(F)F (stereo not drawn) [AVI-3714] | – | – | – | – | – | – | – | – | – | – | – | – | – | TFA only | – | – | –
OCC(Nc1ncnc2[nH]ccc12)c1ccccc1 (stereo not drawn) [AVI-3715] | 0 | 0.18 | TRUE | TRUE | – | 0.18 | TRUE | 1 | 36 | 36 | Adenosine | – | – | – | – | – | –
OCC1COCCN1c1ncnc2[nH]ccc12 (stereo not drawn) [AVI-3717] | 0 | 0.14 | – | TRUE | – | 0.14 | TRUE | 2 | 28 | 28 | – | TRUE | Adenosine | – | – | – | –
CC(C)(C)C1CCC(CO)N(c2ncnc3[nH]ccc23)C1 (stereo not drawn) [AVI-3719] | 0 | 0.08 | – | TRUE | – | 0.08 | TRUE | 1 | 16 | 16 | – | TRUE | Adenosine | – | – | – | TRUE
CN1CCN(c2ncnc3[nH]ccc23)C(CO)C1 (stereo not drawn) [AVI-3721] | 0 | 0.06 | – | TRUE | – | 0.06 | TRUE | 2 | 12 | 12 | – | TRUE | Adenosine | – | – | – | –
